This passage reports MIC results from ChEMBL document CHEMBL1155520, “Novel 8a-aza-8a-homoerythromycin--4''-(3-substituted-amino)propionates with broad spectrum antibacterial activity” (2010).

SMILES strings stand for the structures. ≈ marks a conversion by molar mass, not a printed value.

Holding throughout (type): functional
In experiment [1] the test system is Streptococcus pyogenes. Nature of the experiment: Antimicrobial activity against macrolide-sensitive Streptococcus pyogenes 3665.
The test system of experiment [2] is Streptococcus pyogenes. Nature of the experiment: Antimicrobial activity against inducible macrolide, lincosamide, streptogramin-resistant Streptococcus pyogenes Finland 11.
Experiment [3] concerns Streptococcus pneumoniae. The experiment can be described thus: Antimicrobial activity against inducible macrolide and constitutive lincosamide, streptogramin-resistant Streptococcus pneumoniae 4636.
In experiment [4] the test system is Streptococcus pneumoniae. Nature of the experiment: Antimicrobial activity against inducible macrolide and constitutive lincosamide, streptogramin-resistant Streptococcus pneumoniae 58 Spain.
The subject of experiment [5] is Streptococcus pyogenes. The experiment can be described thus: Antimicrobial activity against inducible macrolide-resistant Streptococcus pyogenes Finland 3.
In experiment [6] the test system is Staphylococcus aureus. The experiment can be described thus: Antimicrobial activity against macrolide-sensitive Staphylococcus aureus PK1.
In experiment [7] the test system is Streptococcus pyogenes. Nature of the experiment: Antimicrobial activity against inducible macrolide and constitutive lincosamide, streptogramin-resistant Streptococcus pyogenes 166 GR-micro.
In experiment [8] the test system is Streptococcus pneumoniae. The experiment can be described thus: Antimicrobial activity against inducible macrolide, lincosamide, streptogramin-resistant Streptococcus pneumoniae 134 GRM.
Experiment [9] concerns Staphylococcus aureus. Nature of the experiment: Antimicrobial activity against macrolide-sensitive Staphylococcus aureus ATCC 13709.
In experiment [10] the test system is Streptococcus pneumoniae. The experiment can be described thus: Antimicrobial activity against macrolide-resistant Streptococcus pneumoniae Ci137.
A further experiment has as its system Haemophilus influenzae. The experiment can be described thus: Antimicrobial activity against Haemophilus influenzae ATCC 49247.
For experiment [11], the system named is Streptococcus pneumoniae. The experiment can be described thus: Antimicrobial activity against macrolide-sensitive Streptococcus pneumoniae SPO 30.

Consider `CC[C@H]1OC(=O)[C@H](C)[C@@H](O[C@H]2C[C@@](C)(OC)[C@@H](O)[C@H](C)O2)[C@H](C)[C@@H](O[C@@H]2O[C@H](C)C[C@H](N(C)C)[C@H]2O)[C@](C)(O)C[C@@H](C)NC(=O)[C@H](C)[C@@H](O)[C@]1(C)O`, for which the MIC against Streptococcus pyogenes [1] is less than 0.13 µg/mL; in the experiment with Streptococcus pyogenes [2], 16 µg/mL (≈ 21.4 µM); against Streptococcus pneumoniae [3] it was more than 64 µg/mL; with Streptococcus pneumoniae [4], more than 64 µg/mL; with Streptococcus pyogenes [5] it was 32 µg/mL (≈ 42.7 µM); against Staphylococcus aureus [6], more than 64 µg/mL. Besides, the MIC against Streptococcus pyogenes [7] is more than 64 µg/mL; in the experiment on Streptococcus pneumoniae [8] it was more than 64 µg/mL; with Staphylococcus aureus [9], 1 µg/mL (≈ 1.34 µM); against Streptococcus pneumoniae [10], 32 µg/mL (≈ 42.7 µM); against Haemophilus influenzae, 2 µg/mL (≈ 2.67 µM); against Streptococcus pneumoniae [11], less than 0.13 µg/mL.

Consider `CC[C@H]1OC(=O)[C@H](C)[C@@H](O[C@H]2C[C@@](C)(OC)[C@@H](O)[C@H](C)O2)[C@H](C)[C@@H](O[C@@H]2O[C@H](C)C[C@H](N(C)C)[C@H]2O)[C@](C)(OC)C[C@@H](C)NC(=O)[C@H](C)[C@@H](O)[C@]1(C)O`, for which the MIC in the experiment with Streptococcus pyogenes [1] was less than 0.13 µg/mL; against Streptococcus pyogenes [2], 8 µg/mL (≈ 10.5 µM); against Streptococcus pneumoniae [3], more than 64 µg/mL; in the experiment on Streptococcus pneumoniae [4] it was more than 64 µg/mL; against Streptococcus pyogenes [5] it was 32 µg/mL (≈ 41.9 µM); with Staphylococcus aureus [6], more than 64 µg/mL. The MIC was more than 64 µg/mL with Streptococcus pyogenes [7]; more than 64 µg/mL against Streptococcus pneumoniae [8]; 0.5 µg/mL (≈ 0.655 µM) against Staphylococcus aureus [9]; 16 µg/mL (≈ 21 µM) against Streptococcus pneumoniae [10]; 4 µg/mL (≈ 5.24 µM) in the experiment on Haemophilus influenzae; less than 0.13 µg/mL against Streptococcus pneumoniae [11].

As to `CC[C@H]1OC(=O)[C@H](C)[C@@H](O[C@H]2C[C@@](C)(OC)[C@@H](OC(=O)CCNCCNc3cc4c(cc3F)c(=O)c(C(=O)O)cn4C3CC3)[C@H](C)O2)[C@H](C)[C@@H](O[C@@H]2O[C@H](C)C[C@H](N(C)C)[C@H]2O)[C@](C)(OC)C[C@@H](C)NC(=O)[C@H](C)[C@@H](O)[C@]1(C)O`, the MIC against Streptococcus pyogenes [2] is less than 0.13 µg/mL; with Streptococcus pneumoniae [4] it was less than 0.13 µg/mL; against Streptococcus pyogenes [5], 0.5 µg/mL (≈ 0.445 µM); against Staphylococcus aureus [6], less than 0.13 µg/mL; in the experiment on Streptococcus pyogenes [7], 0.25 µg/mL (≈ 0.223 µM); with Streptococcus pneumoniae [8], less than 0.13 µg/mL. The MIC is less than 0.13 µg/mL in the experiment with Staphylococcus aureus [9], less than 0.13 µg/mL against Streptococcus pneumoniae [10] and 4 µg/mL (≈ 3.56 µM) in the experiment with Haemophilus influenzae.

Regarding `CC[C@H]1OC(=O)[C@H](C)[C@@H](O[C@H]2C[C@@](C)(OC)[C@@H](OC(=O)CCN3CCN(c4cc5c(cc4F)c(=O)ccn5C4CC4)CC3)[C@H](C)O2)[C@H](C)[C@@H](O[C@@H]2O[C@H](C)C[C@H](N(C)C)[C@H]2O)[C@](C)(OC)C[C@@H](C)NC(=O)[C@H](C)[C@@H](O)[C@]1(C)O`, the MIC in the experiment with Streptococcus pyogenes [2] was 1 µg/mL (≈ 0.905 µM); against Streptococcus pneumoniae [4], 64 µg/mL (≈ 58 µM); against Streptococcus pyogenes [5] it was less than 0.13 µg/mL; in the experiment with Staphylococcus aureus [6], 8 µg/mL (≈ 7.24 µM); against Streptococcus pyogenes [7], more than 64 µg/mL; against Streptococcus pneumoniae [8], more than 64 µg/mL. For the same molecule, the MIC against Staphylococcus aureus [9] is 1 µg/mL (≈ 0.905 µM); in the experiment on Streptococcus pneumoniae [10] it was less than 0.13 µg/mL; against Haemophilus influenzae, 8 µg/mL (≈ 7.24 µM).

In the case of `NCCNc1cc2c(cc1F)c(=O)c(C(=O)O)cn2C1CC1`, the MIC against Streptococcus pyogenes [2], against Streptococcus pneumoniae [4], in the experiment with Streptococcus pyogenes [5], against Staphylococcus aureus [6], in the experiment on Streptococcus pyogenes [7] and against Streptococcus pneumoniae [8] was more than 64 µg/mL each time. The MIC in the experiment with Staphylococcus aureus [9], against Streptococcus pneumoniae [10] and against Haemophilus influenzae was more than 64 µg/mL in each case.

On to `CC[C@H]1OC(=O)[C@H](C)[C@@H](O[C@H]2C[C@@](C)(OC)[C@@H](O)[C@H](C)O2)[C@H](C)[C@@H](O[C@@H]2O[C@H](C)C[C@H](N(C)C)[C@H]2O)[C@](C)(O)C[C@@H](C)CN(C)[C@H](C)[C@@H](O)[C@]1(C)O` [AZITHROMYCIN], for which the MIC in the experiment on Streptococcus pyogenes [1] is less than 0.13 µg/mL; in the experiment with Streptococcus pyogenes [2] it was 16 µg/mL (≈ 21.4 µM); against Streptococcus pneumoniae [3], more than 64 µg/mL; with Streptococcus pneumoniae [4], more than 64 µg/mL; in the experiment on Streptococcus pyogenes [5], 8 µg/mL (≈ 10.7 µM); against Staphylococcus aureus [6], more than 64 µg/mL. Moreover, the MIC in the experiment on Streptococcus pyogenes [7] is more than 64 µg/mL; against Streptococcus pneumoniae [8], more than 64 µg/mL; in the experiment with Staphylococcus aureus [9], 0.5 µg/mL (≈ 0.668 µM); in the experiment with Streptococcus pneumoniae [10], 8 µg/mL (≈ 10.7 µM); in the experiment on Haemophilus influenzae, 1 µg/mL (≈ 1.34 µM); against Streptococcus pneumoniae [11] it was less than 0.13 µg/mL.

Regarding `CC[C@H]1OC(=O)[C@H](C)C(=O)[C@H](C)[C@@H](O[C@@H]2O[C@H](C)C[C@H](N(C)C)[C@H]2O)[C@](C)(OC)C[C@@H](C)C(=O)[C@H](C)[C@H]2N(CCCCn3cnc(-c4cccnc4)c3)C(=O)O[C@]12C` [TELITHROMYCIN], the MIC in the experiment on Streptococcus pyogenes [2] was determined as 0.06 µg/mL (≈ 0.0739 µM); in the experiment on Streptococcus pneumoniae [4], 0.25 µg/mL (≈ 0.308 µM); in the experiment on Streptococcus pyogenes [5], 0.5 µg/mL (≈ 0.616 µM); with Staphylococcus aureus [6] it was 0.125 µg/mL (≈ 0.154 µM); with Streptococcus pyogenes [7], 16 µg/mL (≈ 19.7 µM); against Streptococcus pneumoniae [8], 0.25 µg/mL (≈ 0.308 µM). In addition, the MIC is less than 0.06 µg/mL in the experiment with Staphylococcus aureus [9], 0.25 µg/mL (≈ 0.308 µM) against Streptococcus pneumoniae [10] and 2 µg/mL (≈ 2.46 µM) against Haemophilus influenzae.
